Measurements reported in patent publication US20160304957A1, “TREATMENT AND MODULATION OF GENE EXPRESSION AND SKIN AGING” (DSM NUTRITIONAL PRODUCTS LTD., priority 2006, published 2016).

System: HaCaT human keratinocytes
Experiment: Affymetrix GeneChip microarray, transcriptional response to β-carotene and/or UVA
Format: cell-based
Details: β-carotene 1.5 μM, unirradiated
Protocol: The cell culture experiments were carried out as described. Briefly, a subclone of passage 65 HaCaT keratinocytes, selected for differentiation capacity, was used at passages 16 to 23 after subcloning. 2×10^5 cells were seeded per 60 millimeter dish. Starting the following day, the cells were pretreated for 2 days with β-carotene at 1.5 μM, a typical concentration in human plasma after moderate dietary supplementation)
β-carotene-containing medium was prepared as follows. Fresh all-E-β-carotene (DSM Nutritional Products, Kaiseraugst, Switzerland) stock solution in THF (containing 0.025% BHT; Fluka Chemie A G, Switzerland) was diluted 1:2 with ethanol and added to cell culture medium to a final concentration of 1.5 μM β-carotene. The solvent concentration in the medium was 0.5% for all treatments. β-carotene-containing medium was prepared fresh for the daily medium changes.
On day 3 of the experiment, the cells were irradiated with a Hönle sun lamp Sol 500 (270 kJ/m^2; Dr. Hönle, Germany).
Five independent, factorially designed cell irradiation experiments were analyzed by microarray hybridization. For each experiment, one chip was hybridized per treatment condition. GeneChip® analysis was done as described in [132], which is incorporated by reference, as if recited in full herein. Gene regulation by β-carotene and/or UVA was calculated relative to placebo.
Changes in gene expression were included in further analysis only if the change factor was […], and if unpaired t-tests yielded p values≦0.05. Upregulations by a […] are labeled bold, downregulations by a change factor of […] are labeled bold italics. (Table 1) To identify the pathways affected by the treatments functional information on the genes was retrieved from public literature databases.

Compound: CC1=C(/C=C/C(C)=C/C=C/C(C)=C/C=C/C=C(C)/C=C/C=C(C)/C=C/C2=C(C)CCCC2(C)C)C(C)(C)CCC1 [β-carotene, All-E-β-carotene]
- N-RAS (X02751) change factor: −1.2
- NCF2; p67-phox; neutrophil oxidase factor (M32011) change factor: −0.8
- NF-κB subunit (S78771) change factor: −0.1
- NF-κB subunit (X61498) change factor: −0.07
- NFκB; p50 (S76638) change factor: −0.46
- NOL1; p120 nucleolar antigen (X55504) change factor: 0.04
- NOTCH3 (U97669) change factor: −0.8
- NOV (X96584) change factor: −0.7
- NOXA (D90070) change factor: −0.26
- NRF1 (L24123) change factor: −0.27
- NRF2, subunit beta 1 (U13045) change factor: −1.5
- OSR1; oxidative-stress responsive 1 (AB017642) change factor: −0.18
- PAR-1; thrombin receptor (M62424) change factor: −0.5
- PAR-2; proteinase activated receptor-2 (U34038) change factor: −0.27
- PAR-2; proteinase activated receptor-2 (U34038, second entry) change factor: −0.03
- PAR-2; proteinase activated receptor-2 (U67058) change factor: 0.03
- PAR-4; protease-activated receptor 4 (AF055917) change factor: −0.49
- RAIDD; death adaptor molecule (U79115) change factor: −0.22
- RB1 (L49229) change factor: −0.8
- RB2/p130 (X74594) change factor: −0.6
- RETSDR1; retinal short-chain dehydrogenase/reductase (AF061741) change factor: 1.1
- RPA; replication protein A 14 kda subunit (rpa) (L07493) change factor: −0.04
- RXRα (U66306) change factor: −0.2
- RXRα (X52773) change factor: −0.2
- Requiem (AF001433) change factor: 0.5
- SMAD 1 (U59423) change factor: −0.27
- SMAD3 (U68019) change factor: 0.5
- SMAD3 (U68019, second entry) change factor: 0.18
- SMAD4 (U44378) change factor: −0.7
- SMAD5 (U59913) change factor: −0.9
- SMAD6 (AF035528) change factor: −0.47
- SMAD7 (AF010193) change factor: −0.19
- SMRT (U37146) change factor: −0.33
- STK15; BTAK (AF011468) change factor: −0.18
- TDAG51; PQ-rich protein; PHLDA1 (Z50194) change factor: 0.27
- TGFβ; transforming growth factor β (X02812) change factor: 0.9
- TIAR; nucleolysin tiar (M96954) change factor: −0.45
- TIEG, EGRα (AF050110) change factor: −0.8
- TLR3; toll-like receptor 3 (U88879) change factor: 0.6
- TOP2; topoisomerase II (J04088) change factor: −0.22
- TRADD; TNF receptor-1 associated protein (L41690) change factor: 0.23
- TRAIL; TNF-related apoptosis inducing ligand (U37518) change factor: 0.15
- TRIP14; ‘2-5’ oligoadenylate synthetase (AJ225089) change factor: −0.07
- TRIP (U77845) change factor: −0.06
- TSSC3 (AF035444) change factor: −0.44
- TSSC3/IPL (AF001294) change factor: −0.6
- VEGF (AF022375) change factor: −0.5
- VEGF (AF024710) change factor: 0.02
- VEGF (M63978) change factor: −0.48
- VEGFR2; VEGF receptor 2; KDR; FLK-1kdr/flk-1 (AF035121) change factor: 0.6
- WEE1 (X62048) change factor: −0.6
- WNT5A (I20861) change factor: −0.47
- WNT5A (I20861, second entry) change factor: −1.7
- XRCC4 (U40622) change factor: −0.05
- bFGF; basic fibroblast growth factor; FGF2 (M27968) change factor: 0.1
- bilirubin udp-glucuronosyltransferase isozyme 2 (M57951) change factor: −0.25
- bullous pemphigoid autoantigen bp180 (M91669) change factor: −0.45
- c-myc (V00568) change factor: 0.1
- c-myc (V00568, second entry) change factor: 0.1
- c-myc binding protein (mbp-1) (M55914) change factor: 0.5
- caspase 2, ICH-1S (U13022) change factor: −0.31
- caspase 7 (U67319) change factor: −0.09
- ceruloplasmin (ferroxidase) (M13699) change factor: 1
- collagen type IV, α-2 (COL4A2) (X05610) change factor: −0.13
- collagen type IV, α-5 (COL4A5) (M58526) change factor: −0.8
- collagen type IV, α-6 (COL4A6) (D21337) change factor: −0.44
- collagen type VII, α-1 (COL7A1) (L02870) change factor: −0.21
- connexin 31 (AF099730) change factor: 0.17
- connexin 45 (U03493) change factor: −0.06
- coproporphyrinogen oxidase (D16611) change factor: −0.21
- cyclin E2 (AF091433) change factor: −0.25
- cyclin E (M73812) change factor: −0.23
- desmocollin type 4 (D17427) change factor: −1.3
- ferritin heavy chain (L20941) change factor: 0.36
- frizzled-2 (I37882) change factor: −0.03
- frizzled-6 (AB012911) change factor: −0.5
- haemochromatosis protein (hla-h) (U60319) change factor: 0.15
- hsp40; heat shock protein 40 (U40992) change factor: −0.6
- integrin α6 (X53586) change factor: −1.1
- integrin α6b (S66213) change factor: −0.9
- integrin α6b (S66213, second entry) change factor: −1.3
- jagged2 (jag2) (AF029778) change factor: −0.02
- keratin 2e (KRT2E); Keratin 2A (AF019084) change factor: −0.46
- keratin 5 (M21389) change factor: 0.9
- keratin 15 (J00124) change factor: 1
- keratin 16 (M28439) change factor: −2
- keratin 17 (Z19574) change factor: 0.04
- mKI67a mrna (long type) for antigen of monoclonal antibody KI-67 (X65550) change factor: −0.3
- mKI67a mrna (long type) for antigen of monoclonal antibody KI-67 (X65550, second entry) change factor: −0.17
- ornithine decarboxylase (M33764) change factor: −0.2
- ornithine decarboxylase (X16277) change factor: −0.32
- p21; wild-type p53 activated fragment-1 (WAF1) (U03106) change factor: −0.5
- p33; ING1b (AB024401) change factor: −0.47
- p160ROCK (U43195) change factor: −0.28
- protoporphyrinogen oxidase (D38537) change factor: −0.32
- rTS α (X67098) change factor: 0.13
- serpinB1 (M93056) change factor: 0.7
- stimulator of Fe transport (AF020761) change factor: 0.03
- thioredoxin reductase (X91247) change factor: −0.08
- thymidylate synthase (X02308) change factor: −0.12
- transferrin receptor (X01060) change factor: −0.05
- uroporphyrinogen III synthase (J03824) change factor: −0.15
- α topoisomerase truncated-form (L47276) change factor: −0.43
